Assay results taken from patent US9402819B2, “Anti-HIV compound and preparation method and use thereof” (Sichuan University, priority 2012, dated 2016).
≈ marks a conversion by molar mass, not a printed value.

What was measured:
HIV-1IIIB [1] = assay: Anti-HIV activity in C8166 cells; format: cell-based; details: C8166 cells; for TI: CC50/EC50; for EC50: Human immunodeficiency virus 1, HIV-1IIIB, read-out: EC50
Experimental: (§1) The anti-HIV activity was determined by the “Guiding Principles of Anti HIV Drug Unclinical Pharmacodynamics” of SFDA which is tested by technology standard assay according to International Universal Standards and Methods. Where in CC50, EC50 were measured twice and took the average.

[2] = Cytotoxicity (CC50) in H9 cells; format: cell-based, human; details: human, read-out: CC50
Experimental: as §1

HIV-2 ROD = assay: Activity for HIV-2 ROD; details: for TI: HIV-2 ROD; for EC50: Human immunodeficiency virus 2
HIV-1IIIB [3] = assay: Anti-HIV activity in H9 cells; format: cell-based; details: H9 cells; for TI: CC50/EC50; for EC50: Human immunodeficiency virus 1, HIV-1IIIB, read-out: EC50
Experimental: as §1

[4] = Activity for HIV-2 CBL-20
HIV-2 CBL-20 = assay: Activity for HIV-2 CBL-20; details: for TI: HIV-2 CBL-20; for EC50: Human immunodeficiency virus 2
[5] = Cytotoxicity (CC50) in C8166 cells; format: cell-based; details: human
Experimental: as §1

HIV-1TC-1 = assay: microbe, parasite or virus in culture; details: Human immunodeficiency virus 1
HIV-1A17 = assay: microbe, parasite or virus in culture; details: Human immunodeficiency virus 1
[6] = for safety at high dose: high dose (10 g/kg); for acute toxicity test finding: in vivo
HIVKM018 = assay: microbe, parasite or virus in culture; details: Human immunodeficiency virus 1
H9 cells = assay: Cytotoxicity (CC50) in H9 cells; format: cell-based, human
Experimental: as §1

[7] = Solubility in aqueous solution; format: physicochemical
Text: Solubility is an important parameter of druggability. […] They are with good solubility and can be formulated into an oral formulation. The prodrugs can be hydrolyzed into 46 which is with good fat-solubility and TI as well as distribution.

[8] = Stability (degradation) in solutions of different pH; format: physicochemical
Experimental: For example, compound 67 was tested in solutions with PH=4.004, 6.864 and 9.182, and its degradation rate was […]. […] As to the Mechanism of action of the compounds, the possible binding mode between 46 and vif was predicted by docking There are five possible hydrogen bonds between them: two hydrogen bonds between the nitro group and Arg79 and Lys178, two hydrogen bonds between the oxygen atom of methoxyl group with His141 and Arg97, one hydrogen bond between the nitrogen atom of pyridine with Gly103. (The binding mode can be seen in FIG. 4)

[9] = simulated gastric fluid, in aqueous solution (pH=2)

Compound | TI (HIV-1IIIB [1]) | EC50 (HIV-1IIIB [1]) | CC50 ([2]; H9 cells) | TI (HIV-2 ROD) | EC50 (HIV-2 ROD) | CC50 (Activity for HIV-2 ROD) | TI (HIV-1IIIB [3]) | EC50 (HIV-1IIIB [3]) | CC50 [4] | TI (HIV-2 CBL-20) | EC50 (HIV-2 CBL-20) | CC50 [5] | safety at high dose [6] | acute toxicity test finding [6] | solubility [7, 9] | also measured
COc1ccccc1NC(=O)c1c(N)cccc1Sc1ccc([N+](=O)[O-])cc1 [Compound 25, 2-amino-N-(2-methoxyphenyl)-6-(4-nitrophenylthi-o)benzamide] | 310.02 | 0.21 µg/mL (≈ 0.531 µM) | 153 µg/mL (≈ 387 µM) | 312.90 | 0.59 µg/mL (≈ 1.49 µM) | 185 µg/mL (≈ 467 µM) | 206.68 | 0.74 µg/mL (≈ 1.87 µM) | 164 µg/mL (≈ 414 µM) | 199.72 | 0.82 µg/mL (≈ 2.07 µM) | 65.4 µg/mL (≈ 165 µM) |  |  |  | 
COc1ccccc1NC(=O)c1c(N)cccc1S(=O)(=O)c1ccc([N+](=O)[O-])cc1 [Compound 46, 2-amino-N-(2-methoxyphenyl)-6-((4-nitroph-enyl)sulfonyl)benzamide] |  | 0.096 µg/mL (≈ 0.225 µM) |  | 487.8 | 0.41 µg/mL (≈ 0.959 µM) | > 200 µg/mL |  | 0.66 µg/mL (≈ 1.54 µM) | > 200 µg/mL | 444.44 | 0.45 µg/mL (≈ 1.05 µM) | 141 µg/mL (≈ 329 µM) | very safe | no abnormal phenomenon occurred |  | EC50 (HIV-1TC-1): 0.11 µg/mL (≈ 0.257 µM); EC50 (HIV-1A17): 18.7 µg/mL (≈ 43.8 µM); CC50 [2]: > 200 µg/mL; EC50 (HIVKM018): 6.23 µg/mL (≈ 14.6 µM)
COc1ccccc1NC(=O)c1c(N)cccc1Oc1ccc([N+](=O)[O-])cc1 [Compound 48, 2-amino-N-(2-methoxyphenyl)-6-(4-nitrop-henoxy)benzamide] |  |  |  |  |  |  | 2.14 |  |  |  |  |  |  |  |  | CC50 (H9 cells): 76.60 µg/mL (≈ 202 µM)
COc1ccccc1NC(=O)c1c(NC(=O)CN)cccc1Sc1ccc([N+](=O)[O-])cc1.Cl [Compound 66, 2-(2-aminoacetamido)-N-(2-methoxyphenyl)-6-(4-nitrophenylthio)benzamide hydrochloride] | 97.01 | 0.81 µg/mL | 72.3 µg/mL |  |  |  | 451.69 | 0.16 µg/mL |  |  |  | 78.3 µg/mL |  |  | 1290 µg/mL | 
COc1ccccc1NC(=O)c1c(NC(=O)CN)cccc1S(=O)(=O)c1ccc([N+](=O)[O-])cc1.Cl [Compound 67, 2-(2-aminoacetamido)-N-(2-methoxyphenyl)-6-((4-nitrophenyl)sulfonyl)benzamide hydrochloride hydrochloride] |  |  | 94.9 µg/mL |  | 0.78 µg/mL | 126 µg/mL |  |  | 106 µg/mL |  | 1.21 µg/mL | 165 µg/mL | very safe | no abnormal phenomenon occurred |  | solubility ([7]; aqueous buffer, in water with pH=7): 1730 µg/mL; degradation rate ([8]; solution PH=4.004): 0.2767; degradation rate ([8]; solution PH=6.864): 0.4956; degradation rate ([8]; solution PH=9.182): 9.182
COc1ccccc1NC(=O)c1c(NC(=O)C(N)CCCCN)cccc1Sc1ccc([N+](=O)[O-])cc1.Cl (stereo not drawn) [Compound 68, 2-(2,6-diaminohexanamido)-N-(2-methoxyphenyl)-6-((4-nitrophenyl)thio)benzamide hydrochloride] |  |  | 90.1 µg/mL |  |  |  |  |  |  |  |  | 116 µg/mL |  |  | 2850 µg/mL | 
